This passage reports melting point results from a melting point compilation (Tetko et al.; mined from patent text by program, amines drawn as free bases though some values may be those of a salt).

Each structure is given as a SMILES string.

Turning to `Cc1nccnc1NCCN1CCC(NC(=O)c2cc(Cl)c(N)c3c2OC(C)(C)C3)CC1`, the melting point amounted to 163 °C.
For `CCOCCC(=O)OC1(C(=O)CO)CCC2C3CC(C)C4=CC(=O)C=CC4(C)C3C(O)CC21C` (stereo not drawn) the value was 167 °C; for `Cc1ccc(-c2nc3ccc(C)cn3c2CC(=O)O)cc1`, 228 to 230 °C; for `COc1cccc(C(=O)Nc2ccc(Cn3cnc(O)c3C(N)=O)cc2)c1`, 257 to 259 °C.
For `CCc1c(C(=O)N(O)O)cc(C(C)(C)C)c(O)c1C(C)(C)C` the value was 147 to 150 °C.
For `Cc1ccccc1C=C1CCc2c1nc1ccc(C(=O)O)cn1c2=O` the value was 300 to 302 °C; for `CN(Cc1ccc(-c2ccc(N3C[C@H](Cn4ccnn4)OC3=O)cc2F)cn1)CC(O)CO` (stereo partly drawn), 123 °C.
Regarding `Cc1c(-c2ccncc2)sc(-c2ccncc2)c1CF`, the melting point worked out at 148 °C.
In the case of `CC(=O)N1CCc2cc(Br)cc(N)c21` it was 154 to 155 °C.
`CCCc1nn(-c2ccc(C(F)(F)F)cn2)cc1CCCOc1ccc(CC(=O)O)c(C)c1` gave a melting point of 134 to 135 °C.
`CS(=O)(=O)Nc1ccc(OC(=O)c2ccc(CCBr)cc2)cc1`: the melting point was 161 to 162 °C.
For `CCCCc1c(C(=O)c2ccc(O)cc2)c2cc([N+](=O)[O-])ccc2n1C` the value was 198 °C.
For `O=C(O)CSCCCCCn1nc(-c2ccccc2)c(-c2ccccc2)c1-c1ccccc1` the value was 140 to 142 °C; for `FC(F)(F)c1ccc(CN2CCNc3ncc(I)cc32)o1`, 153 to 154 °C.
In the case of `CCCCc1nc2cccc(C(=O)O)c2n1Cc1ccc(-c2ccccc2-c2n[nH]c(=O)o2)cc1` it was 204 to 205 °C.
The compound `Cc1cnc2sc(S(=O)(=O)c3ccccc3)nn2c1=O` displayed a melting point of 198 to 200 °C.
In the case of `CCN(CC)CCOc1ccc2[nH]c3c([N+](=O)[O-])ccc(Cl)c3c(=O)c2c1` it was 148 to 151 °C; in that of `COc1ccc2nc(O)c(O)nc2c1`, more than 300 °C; in that of `COC(=O)Cn1c(Cc2ccccc2)ccc(N)c1=O`, 134 to 136 °C.
For `Cc1cnc(NCCc2ccccn2)c(=O)n1NC(=O)CCc1cc(Cl)ccc1Cl` the value was 188 to 191 °C; for `CCCOc1n[nH]c(=O)[nH]1`, 156 °C; for `CN1Cc2c(-c3nc(CN4C(=O)c5ccccc5C4=O)no3)ncn2-c2ccccc2C1=O`, 239 to 240 °C.
In the case of `O=S(=O)(Nc1cccc(/C=C/c2ccccc2)c1)C(F)(F)F` it was 62 to 64 °C; in that of `Cc1oncc1C(=O)Nc1ccc(-n2nc(C(F)(F)F)cc2C2CC2)c(F)c1`, 125 to 128 °C; in that of `CC(c1ncncc1Cl)C(O)(Cn1cncn1)c1ccc(F)cc1F` (stereo not drawn), 128 °C.
With `CC(C)NCCNC(=O)c1ccc(OCc2ccc(-c3ccccc3)cc2)cc1`, the melting point was in the range of 150 to 154 °C.
For `COc1ccc(N2Cc3nc(C(=O)O)nn3-c3cccnc32)cc1` the value was 190 to 196 °C; for `CN(C)CCOc1ccc(Cl)c(C(=O)O)c1Cl`, 234 to 236 °C; for `CC(C)(C)C(=O)Oc1ccccc1-c1nnn[nH]1`, 82 to 85 °C.
In the case of `CC(C)Nc1cccnc1N1CCN(C(=O)c2ccc(C(=O)NCCN(C)C)cc2)CC1` it was 133 °C; in that of `Nc1ncnc2c1c(C#CCO)nn2Cc1oc2ccccc2c(=O)c1-c1ccccc1`, 171 to 173 °C; in that of `CN(C(=O)C1(CCCCCCCCCCCCC2(C(=O)O)CC2)CC1)S(C)(=O)=O`, 62.9 to 63.7 °C.
In the case of `Cc1cn(C2CC(N=[N+]=[N-])C(C(O)S(C)(=O)=O)O2)c(=O)n(C(=O)c2ccccc2)c1=O` (stereo not drawn) it was 86 to 88 °C; in that of `Nc1ccc(Br)cc1C(=O)NCCCn1ccnc1`, 154 to 156 °C.
Turning to `O=C(O)CCCCCCCCCSc1ccccc1O`, the melting point lay in the range of 58 to 59 °C.
In the case of `Cn1ncc2c1C(=O)C(Cl)=C(Cl)C2=O` it was 176 to 177 °C; in that of `CCOCc1nc2c(N)nc3cc(-c4cccnc4)ccc3c2n1CCNC(=O)C(C)C`, 213 to 215 °C.
Turning to `Cc1ccc(C(N)=O)cc1F`, the melting point lay in the range of 161 to 163 °C.
For `C=CCN(CC=C)Cc1noc(-c2ncn3c2[C@@H]2CCN2C(=O)c2ccccc2-3)n1` the value was 147 to 150 °C.
In the case of `COc1cc2ncnc(N3CCN(C(=O)Nc4cc(Cl)nc(Cl)c4)CC3)c2cc1OC` it was 267 to 270 °C.
In the case of `COC(=O)c1cc(C(C)OC(C)C)c(C(F)(F)F)cc1N` (stereo not drawn) it was 87 to 90 °C; in that of `Cc1cc(-c2ccccc2)c2ccccc2n1`, 100 to 101 °C.
With `CN(C)C(=O)N1CCc2ccc(S(=O)(=O)NC(=O)NCC3CCCC3)cc2CC1`, the melting point is 165 to 166 °C.
For `O=C(Nc1n[nH]c(=S)s1)N[C@@H](Cc1ccccc1)C(=O)N1CCN(c2ncccn2)CC1` the value was 235 to 237 °C; for `CC(=O)OCC1OC(Oc2nc[nH]c2C(N)=O)C(OC(C)=O)C1OC(C)=O` (stereo not drawn), 132 to 134 °C.
On to `N#Cc1ccc(-c2n[nH]c3c2Cc2ccccc2-3)cc1`, for which the melting point is 245 °C.
In the case of `c1ccc(C(N=C2NCCN2)c2ccccc2)cc1` it was 189 to 190 °C; in that of `CC(c1ccc(Br)cc1)N(O)C(N)=O` (stereo not drawn), 138 to 140 °C; in that of `CCOC1=CCC(NC(C)=O)CC1` (stereo not drawn), 100 to 102 °C.
`CC1(O)CC(=O)OC(CCc2ccc(OCc3ccc(F)cc3)cc2)C1Br` (stereo not drawn) yielded a melting point of 160 to 163 °C.
For `CC(C)=CCCC(C)=CCOc1ccc(C(=O)NCCc2ccncc2)cc1` the value was 85.2 to 86.1 °C.
For `COc1ccc(OC)c2c1C(C)(C)CCC2(C)C` the value was 195 °C; for `CN(CCOc1ccc(C=CC(=O)N2CCc3c([nH]c4ccccc34)C2c2ccc3c(c2)CCO3)cc1)C(=O)OC(C)(C)C` (stereo not drawn), 110 °C.
For `Oc1cccc(CCCn2ccnn2)c1` the value was 74 to 75 °C.
Regarding `NCCCCCCCCOc1cccc2ccccc12`, the melting point fell in the range of 90.5 to 92 °C.
The compound `C/C(=N\OCCOc1ccc(C(=O)O)cc1Cl)c1ccc(C(C)(C)C)cc1` had a melting point of 167 to 169 °C.
For `O=C(CCCO)Nc1cccc(-c2cccc3cc(Cc4cccc(C(F)(F)F)c4)oc23)c1` the value was 134 to 135 °C; for `COc1cccc(C2(C(C)(C)O)CCN(C)CC2)c1OC`, 97 °C.
For `CCCn1nc2c(N)nc3c(c2c1CCCc1cc(C(C)C)no1)CCCC3` the value was 147 to 149 °C.
For `CCOCCn1c(NC2CCN(CCC3(c4ccccc4)CCN(C(=O)c4cc(OC)c(OC)c(OC)c4)C3)CC2)nc2ccccc21` (single isomer, unassigned; (-)) the value was 106 to 117 °C; for `N#CCCNC(=O)c1cccc(-c2cccc3nn(Cc4ccccc4F)cc23)c1`, 165 to 166 °C; for `CC(C)Nc1nc(N2CCOCC2)nc2cscc12`, 202 °C.
Take `COc1ccc2c(=O)cc[nH]c2c1O`: the melting point lay in the range of 228 to 230 °C.
In the case of `COc1ccc(OCc2nc(-c3ccc(F)cc3)c(-c3ccc(S(C)(=O)=O)cc3)s2)cc1` it was 160 to 164 °C.
For `CC(=O)Nc1ccc2cccc(Oc3cc(N4CCN([C@H](C)c5ccc(F)cc5)CC4)ncn3)c2n1` the value was 134 °C.
In the case of `O=C(Nc1cc(CN2CCCCC2)c(O)c(CN2CCCCC2)c1)c1ccccc1` it was 138 to 140 °C.
As to `Cc1ccc2c(c1)-c1csc(N)c1C2=O`, the melting point was 157 to 159 °C.
In the case of `N#Cc1ccc(Cl)cc1OCC(O)CNc1ccccc1OC1CC=NNC1=O` (stereo not drawn) it was 156 to 158 °C; in that of `Cc1oc(-c2ccccc2)nc1COc1ccc2cc(CCCC3OC(=O)NC3=O)oc2c1` (stereo not drawn), 159 to 160 °C.
For the compound `COc1cc(COc2nn(-c3ccccc3)cc2/C=C2\SC(=O)N(C)C2=O)ccc1OCc1nc(-c2ccco2)oc1C`, the melting point is 215 to 216 °C.
For `CN(C)C1CCCCC1Oc1ccc(Cc2c(-c3ccc(OCCN4CCCC4)cc3)sc3cc(O)ccc23)cc1` (stereo not drawn) the value was 95 to 98 °C; for `Cc1cccc(C)c1NC(=O)N1CCCN(C(C)C)C1`, 138 to 139 °C; for `CS(=O)(=O)N1CC=C(c2ccc3cnc(Nc4ccc(N5CCOCC5)cc4)nn23)CC1`, 238 to 240 °C.
In turn, `O=c1n(CCCN2CCN(c3ccccc3)CC2)nc2n1-c1ccccc1OC2` displayed a melting point of 94 to 96 °C.
In the case of `CN1C(=O)CCCc2ccc(NC(=O)c3ccc(C(=O)O)cc3)cc21` it was more than 270 °C; in that of `CC(=O)OC1CCC2C3C(Sc4ccc(O)cc4)C(=O)c4cc(O)ccc4C3CCC12C` (stereo not drawn), 150 to 155 °C.
For `Cc1nc(-c2ccc(NCC(=O)O)cc2)no1` the value was 178 to 181 °C; for `COC(=O)Cc1nc(-c2cc(C(C)(C)C)c(O)c(C(C)(C)C)c2)oc1C`, 121 to 123 °C; for `CC1(C)CCC(C)(C)c2cc(-c3cc(-c4ccc(CN)cc4)on3)ccc21`, 138 to 143 °C.
`COc1ccccc1NC(=O)Nc1nc(Oc2ccc3ccccc3c2)nc(N(CCC(=O)O)Cc2cccc(C)c2)n1` displayed a melting point of 105 to 125 °C.
In the case of `COc1ccc(NC(=O)c2ccccc2NS(=O)(=O)c2ccc(C)cc2)cc1Cl` it was 181 to 182 °C; in that of `CCOCCNc1nc(C)c(CCO)c(=O)n1C`, 194 °C.
For `COc1cc(CO)cc2c1OCO2` the value was 66 to 67 °C; for `COc1cn(C(c2ccccc2)c2ccccc2)c(=O)o1`, 125 to 127 °C; for `CCC(=C(c1ccc(I)cc1)c1ccc(OCCCCl)cc1)c1ccccc1`, 98 to 100 °C.
In the case of `CN(C)C(=O)N1C[C@@H](O)[C@H](Oc2ccc(Cl)cc2)C1` (relative stereo) it was 137 to 142 °C; in that of `COc1cc2cc(C(=O)N3CC(CCl)c4c3cc(NC(=O)C(C)(C)c3ccccc3[N+](=O)[O-])c3ccccc43)[nH]c2c(OC)c1OC` (stereo not drawn), 139 to 143 °C; in that of `FC(F)(F)c1cccc(C(CC2=NCCN2)c2ccc3ccccc3n2)c1` (stereo not drawn), 92 to 93 °C.
